US20190054109A1, “An antiviral composition and a method for application thereof” (ALLA CHEM, LLC, priority 2017, published 2019)
≈ marks a conversion by molar mass, not a printed value. Where two headings read alike, the source gives them in different places.

Tests used:
[1] = Kinetic solubility (MultiScreen Solubility filter plate, UV); format: physicochemical; settings: aqueous buffer with 2% DMSO, kinetic from dmso stock, 260 nm
Method: The tested compound was dissolved in DMSO to reach a 10-mM concentration and then poured into an aqueous solvent (a phosphate buffer, water, or universal buffers of different pH values) to bring the concentration down to 200 μM. The resulting solution placed in a 96-well filter plate (Millipore's MultiScreen Solubility Filter Plate) was incubated for an hour at room temperature on a shaker, and the residue was filtered off in vacuo. The absorption spectrum of the compound was recorded on a spectrophotometer in a range of 240-400 nm with a 10-nm increment. […] The range of estimated concentrations was 3-200 μM. The test procedure was performed in duplicate.
Six standard samples with concentrations of 0, 3.125, 12.5, 50, 100, and 200 μM were prepared in the wells of a UV 96-well plate by adding 4 μl of corresponding 50× stock solutions in DMSO to 196 μl of a buffer comprising 40% acetonitrile. The concentration of DMSO in all points was constant and equal to 2% (v/v).
To plot calibration curves, the optical spectrum of the UV plate was recorded in a wavelength range of 250 400 nm with a 10-nm increment. Based on the spectral data for each compound, wavelengths were selected to meet the following criteria:
For minimum compound concentration, OD>0.1 (AU);
For maximum compound concentration, OD<2.0.
For each compound, a calibration curve was plotted with OD at selected wavelength as a function of concentration.
Solubility was evaluated in a MultiScreen Solubility (Millipore Corp.) filter plate as follows:
Into each well of the MultiScreen Solubility filter plate, 196 μl of a buffer (without acetonitrile) and 4 μl of a 10-mM compound in DMSO or 4 μl of DMSO (for a blank matrix) were added. The plate was incubated for one hour on a shaker (400 rpm) at room temperature.
The resulting solutions were filtered off through the filter plate by means of vacuum (10″ Hg) into a polypropylene plate with a U-shaped bottom.
From the U-bottom plate, the filtrate (120 μl/well) was transferred into a new UV plate, where to acetonitrile (80 μl/well) was added.
The optical density of resulting solutions for a pre-selected wavelength was measured for each compound.
The final compound concentration in the filtrate was computed as follows:
Cfiltrate=(ODλFiltrate-ODλBlank)/Slope×1.67,

[2] = Stability in human liver S9 fraction; format: in vitro ADME
Method: Proteins were deposited on ice for 15 min. The samples were then centrifuged for 10 min at 3000 rpm, and the supernatant (150 μl) was sampled for analysis.
Tolbutamide (Fluka) was used as the internal standard.

C[C@H](N[P@](=O)(OC[C@H]1O[C@@H](n2ccc(=O)[nH]c2=O)[C@](C)(F)[C@@H]1O)Oc1ccccc1)C(=O)OC1CCC1 [Prodrug 1.1, cyclobutyl (S)-2-{(S)-[(2R,3R,4R,5R)-5-(3,4-dihydro-2,4-dioxo-2H-pyrimidin-1-yl)-3-hydroxy-4-methyl-4-fluoro-tetrahydro-furan-2-ylmethoxy]-phenoxy-phosphorylamino}-propanoate]
solubility at 1 h ([1]; pH 2, aqueous buffer, recrystallized from acetic acid, polycrystal, read-out: Solubility at pH 2): 630 µg/mL (≈ 1160 µM)
solubility at 1 h ([1]; pH 2, aqueous buffer, recrystallized from dimethyl sulfoxide, crystal, read-out: Solubility at pH 2): 180 µg/mL (≈ 332 µM)
solubility at 1 h ([1]; pH 2, aqueous buffer, recrystallized from ethanol, polycrystal, read-out: Solubility at pH 2): 200 µg/mL (≈ 369 µM)
solubility at 1 h ([1]; pH 2, aqueous buffer, recrystallized from ethyl acetate and methyl-tert-butyl ether mixture, polycrystal, read-out: Solubility at pH 2): 250 µg/mL (≈ 462 µM)
solubility at 1 h ([1]; pH 2, aqueous buffer, recrystallized from ethyl acetate, polycrystal, read-out: Solubility at pH 2): 220 µg/mL (≈ 406 µM)
solubility at 1 h ([1]; pH 7, aqueous buffer, recrystallized from acetic acid, polycrystal, read-out: Solubility at pH 7): 670 µg/mL (≈ 1240 µM)
solubility at 1 h ([1]; pH 7, aqueous buffer, recrystallized from dimethyl sulfoxide, crystal, read-out: Solubility at pH 7): 180 µg/mL (≈ 332 µM)
solubility at 1 h ([1]; pH 7, aqueous buffer, recrystallized from ethanol, polycrystal, read-out: Solubility at pH 7): 200 µg/mL (≈ 369 µM)
solubility at 1 h ([1]; pH 7, aqueous buffer, recrystallized from ethyl acetate and methyl-tert-butyl ether mixture, polycrystal, read-out: Solubility at pH 7): 240 µg/mL (≈ 443 µM)
solubility at 1 h ([1]; pH 7, aqueous buffer, recrystallized from ethyl acetate, polycrystal, read-out: Solubility at pH 7): 220 µg/mL (≈ 406 µM)
half-life at 1 μM ([2]; pH 7.4, human liver S9 fraction 1 mg/ml protein, 37° C., 1 μM, read-out: T1/2 Human S9 (converted)): 3 min
metabolic rate in human liver microsomal S9 fraction relative to Sovaldi (faster) ([2]; ratio of T1/2 in human S9): 11 times
